Test results as given in article PMC3827244, “An Ultrasensitive High Throughput Screen for DNA Methyltransferase 1-Targeted Molecular Probes” (PLoS ONE, 2013).

Experiments:
M.SssI DNMT = biological target: T1, M.SssI DNMT (Spiroplasma monobiae, UniProt P15840); test: Compound selectivity, endonuclease-coupled DNA methylation assay; type: biochemical, bacterial; settings: 1.25 h; 20 µM inhibitor, 20 nM methyltransferase, 0.25 mM SAM; read-out: Percent activity, M.SssI DNMT
T1 construct: purchased New England Biolabs
Description: After identifying direct inhibitors of DNMT1 lacking the RFTS domain, inhibitor selectivity was assessed by examining inhibition of RFTS-containing DNMT1 (amino acids 351–1616), CD-DNMT3A/DNMT3L complex, and the bacterial cytosine methyltransferase from M. SssI (New England Biolabs) using the endonuclease-coupled DNA methylation assay. Triplicate assays (100 µl) containing 0.25 mM SAM, 0.2 µM oligonucleotide 8006, 0.8 U GlaI, 20 nM methyltransferase, 20 µM inhibitor and 1% DMSO were conducted in 96 well plates. Following enzyme addition, assay plates were incubated at 37°C for 75 min and fluorescence was measured in a BioTek Neo plate reader. A control containing only GlaI was subtracted from each assay. […] Percent activity was determined by comparing product formation to a DMSO containing control assay.

[1] = biological target: T2, RFTS-containing DNMT1 (amino acids 351–1616) (Homo sapiens, UniProt P26358); test: as above; type: biochemical; settings: 20 µM inhibitor, 20 nM methyltransferase, 0.25 mM SAM
T2 construct: RFTS-containing DNMT1, amino acids 351–1616; made in house
Description: (§1) Triplicate assays (100 µl) containing 0.25 mM SAM, 0.2 µM oligonucleotide 8006, 0.8 U GlaI, 20 nM methyltransferase, 20 µM inhibitor and 1% DMSO were conducted in 96 well plates. Following enzyme addition, assay plates were incubated at 37°C for 75 min and fluorescence was measured in a BioTek Neo plate reader. A control containing only GlaI was subtracted from each assay. […] Percent activity was determined by comparing product formation to a DMSO containing control assay.

CD-DNMT3A/DNMT3L complex = biological target: T3, CD-DNMT3A/DNMT3L complex (Homo sapiens, UniProt Q9Y6K1); test: as above; type: biochemical; settings: 20 µM inhibitor, 20 nM methyltransferase, 0.25 mM SAM
T3 construct: CD-DNMT3A; amino acids 611–912; His tag (N); made in house; host or cells: Rosetta 2(DE3)pLysS (E. coli) for CD-DNMT3A
Description: as §1

calf thymus DNA = test: DNA intercalation assay (ethidium bromide displacement); type: binding; settings: 10 µM compound
Description: DNA intercalation was assessed by examining the ability of the compounds to displace ethidium bromide from calf thymus DNA (ctDNA; Sigma). Duplicate assays (100 µl) were conducted in black 96 well plates and contained 15 µg/ml ctDNA, 1.5 µM ethidium bromide and 10 µM compound in methylation assay buffer. DMSO was used as a negative control and daunorubicin (Sigma) was used as a positive control. Fluorescence was measured using excitation and emission wavelengths of 320 nm and 600 nm, respectively.

T3 sequence (Q9Y6K1 611-912): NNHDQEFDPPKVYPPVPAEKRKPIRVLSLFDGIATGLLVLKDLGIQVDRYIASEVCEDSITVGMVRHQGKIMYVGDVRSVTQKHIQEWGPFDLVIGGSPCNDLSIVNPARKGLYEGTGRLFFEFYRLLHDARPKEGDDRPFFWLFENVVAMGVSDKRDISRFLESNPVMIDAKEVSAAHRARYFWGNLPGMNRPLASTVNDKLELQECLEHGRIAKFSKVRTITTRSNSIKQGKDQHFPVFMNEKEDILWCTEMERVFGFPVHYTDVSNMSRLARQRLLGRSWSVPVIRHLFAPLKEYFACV
T3 sequence (Q9UJW3 whole entry partner, the tested form may be a part): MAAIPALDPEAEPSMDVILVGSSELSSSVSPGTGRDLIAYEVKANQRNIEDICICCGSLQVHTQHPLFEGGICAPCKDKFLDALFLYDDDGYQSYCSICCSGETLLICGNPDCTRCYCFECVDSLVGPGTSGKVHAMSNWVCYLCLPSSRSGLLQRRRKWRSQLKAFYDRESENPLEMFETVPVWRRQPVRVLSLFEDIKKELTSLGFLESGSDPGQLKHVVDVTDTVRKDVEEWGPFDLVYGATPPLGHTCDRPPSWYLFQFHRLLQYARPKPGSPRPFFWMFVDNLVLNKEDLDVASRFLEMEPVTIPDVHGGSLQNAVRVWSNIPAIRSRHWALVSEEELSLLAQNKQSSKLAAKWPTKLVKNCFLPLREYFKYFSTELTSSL
T1 sequence (P15840 whole entry): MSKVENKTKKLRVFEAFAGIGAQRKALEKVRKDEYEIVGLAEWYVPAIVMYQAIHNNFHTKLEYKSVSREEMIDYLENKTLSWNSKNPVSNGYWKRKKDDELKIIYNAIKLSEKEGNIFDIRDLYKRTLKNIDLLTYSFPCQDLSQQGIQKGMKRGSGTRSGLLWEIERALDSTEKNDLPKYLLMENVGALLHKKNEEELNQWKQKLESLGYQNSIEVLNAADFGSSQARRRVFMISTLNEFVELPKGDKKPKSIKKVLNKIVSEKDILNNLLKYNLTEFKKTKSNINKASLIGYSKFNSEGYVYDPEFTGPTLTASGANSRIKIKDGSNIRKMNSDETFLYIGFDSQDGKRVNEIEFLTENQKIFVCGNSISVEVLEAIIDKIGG
T2 sequence (P26358 351-1616): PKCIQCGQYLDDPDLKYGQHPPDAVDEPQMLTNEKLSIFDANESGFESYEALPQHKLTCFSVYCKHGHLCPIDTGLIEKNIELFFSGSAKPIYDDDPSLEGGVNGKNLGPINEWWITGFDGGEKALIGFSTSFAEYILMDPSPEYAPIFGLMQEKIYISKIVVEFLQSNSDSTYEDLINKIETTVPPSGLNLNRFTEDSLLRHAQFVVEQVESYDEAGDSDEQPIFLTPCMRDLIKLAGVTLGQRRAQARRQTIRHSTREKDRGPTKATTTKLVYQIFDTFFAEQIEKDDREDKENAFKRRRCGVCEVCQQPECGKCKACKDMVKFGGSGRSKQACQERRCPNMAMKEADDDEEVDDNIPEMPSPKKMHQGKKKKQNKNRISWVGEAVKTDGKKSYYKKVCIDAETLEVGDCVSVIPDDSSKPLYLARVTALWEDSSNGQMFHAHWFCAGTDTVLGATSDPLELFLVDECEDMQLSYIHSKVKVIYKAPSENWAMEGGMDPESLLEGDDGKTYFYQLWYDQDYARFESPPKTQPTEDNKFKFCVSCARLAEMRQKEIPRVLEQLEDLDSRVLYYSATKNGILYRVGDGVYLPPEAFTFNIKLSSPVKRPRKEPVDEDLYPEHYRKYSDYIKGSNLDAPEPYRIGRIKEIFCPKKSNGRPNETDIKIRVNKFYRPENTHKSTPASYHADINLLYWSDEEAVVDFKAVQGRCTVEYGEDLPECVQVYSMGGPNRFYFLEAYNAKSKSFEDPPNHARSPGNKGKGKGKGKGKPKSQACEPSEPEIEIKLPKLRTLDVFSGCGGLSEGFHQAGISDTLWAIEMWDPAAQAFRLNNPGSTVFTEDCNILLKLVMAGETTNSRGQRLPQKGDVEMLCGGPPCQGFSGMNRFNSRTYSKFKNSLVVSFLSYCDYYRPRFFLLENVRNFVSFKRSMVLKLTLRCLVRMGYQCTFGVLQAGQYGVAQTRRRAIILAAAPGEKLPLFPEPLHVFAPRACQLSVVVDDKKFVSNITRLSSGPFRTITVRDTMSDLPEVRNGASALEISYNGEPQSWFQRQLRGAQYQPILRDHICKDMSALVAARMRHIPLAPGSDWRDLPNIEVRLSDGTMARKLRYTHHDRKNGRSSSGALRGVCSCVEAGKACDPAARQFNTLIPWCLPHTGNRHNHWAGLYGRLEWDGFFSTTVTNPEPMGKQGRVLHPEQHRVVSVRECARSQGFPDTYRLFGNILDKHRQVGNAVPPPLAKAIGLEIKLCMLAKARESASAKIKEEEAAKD

| SMILES | remaining activity at 20 µM (M.SssI DNMT) | Percent activity, RFTS-containing Dnmt1 [1] | Percent activity, DNMT3A/DNMT3L Complex (CD-DNMT3A/DNMT3L complex) | DNA intercalation (in words) (calf thymus DNA) | RFU (ethidium bromide fluorescence) (calf thymus DNA; 15 µg/ml ctDNA, 1.5 µM ethidium bromide, DMSO 2370 ± 190) |
| --- | --- | --- | --- | --- | --- |
| Nc1ncn([C@@H]2O[C@H](CO)[C@@H](O)[C@H]2O)c(=O)n1 [5-aza-cytidine, reference compound] | 100 ± 5% | 100±11% | 97±10% | – | – |
| COc1cccc2c1C(=O)c1c(O)c3c(c(O)c1C2=O)C[C@@](O)(C(C)=O)C[C@@H]3O[C@H]1C[C@H](N)[C@H](O)[C@H](C)O1 [Daunorubicin, daunorubicin, reference compound] | – | – | – | significantly reduced fluorescence | 605 ± 33 RFU |
